Assay results from US20070249555A1, “Use of Atp Analogues for Treatment of Cardiovascular Diseases” (INSTITUT NATIONAL DE LA SANTE ET DE LA RECHERCHE MEDICALE …, priority 2004, published 2007).

Experiments:
HepG2 cells = test: TG-HDL2 internalization by HepG2 cells; assay type: cell-based, human; conditions: 10 min at 37° C.; for effect on the stimulation by ADP of the TG-HDL2 internalization: ADP 100 nM + A2P5P 100 μM or MRS2179 10 μM
Experimental: Cells were incubated for 10 minutes at 37° C. with 75 μg/ml^125I-TG-HDL2 without (control) or with apolipoprotein A-I 10 μg/ml (a), ADP 100 nM (b), AR-C69931MX 100 nM (c), ADP 100 nM+AR-C69931MX 100 nM (d), ADP 100 nM+[…] 100 μM (e), ADP 100 nM+MRS2179 10 μM (f). […] Internalization assays were performed as described in Guendouzi et al., (Biochemistry, 1998, 37: 14974-80) on HepG2 cells, obtained from the American Type Culture Collection ([…]). Cells were incubated for 10 minutes at 37° C. with 75 μg/ml of either ^125I-TG-HDL2, ^125I-HDL3 or ^125I-LDL. After washing and dissociation at 4° C. in phosphate buffered saline (PBS), cell radioactivity was determined using a Wallac 1261 multigamma apparatus. Prior experiments, cells were plated in polylysine-coated 24-multiwell plates (Falcon) at 4×10^4 cells per well. Cells were grown in Dulbecco's modified Eagles medium supplemented with 10% fetal calf serum, 100 units/ml penicillin, and 100 μg/ml streptomycin at 37° C. in a 5% CO2 and 95% air incubator. Medium was changed every 2 or 3 days, and the cells were subcultured every 7-8 days. Results are expressed as a percentage of internalization with respect to the control value (set at 0). Control corresponded to a basal value of internalization, amounting to 400 ng, 300 ng, 200 ng of TG-HDL2, HDL3 and LDL per mg of cells protein respectively for 10 minutes. Data as a mean ±SEM of at least 7, 5, 6 independent experiments, for TG-HDL2, HDL3 and LDL respectively.

human P2Y1 receptor = target: T1, human P2Y1 receptor (Homo sapiens, UniProt P47900); test: TG-HDL2 internalization by HepG2 cells after P2Y1 receptor silencing by siRNA; assay type: cell-based; conditions: HepG2, pool of 4 P2Y1 siRNAs 100 nM, 48 h; apoA-I 10 μg/ml, ADP 100 nM, AR-C69931MX 100 nM
T1 construct: host or cells: HepG2
Experimental: HepG2 cells were transiently transfected with siRNA designated to human P2Y1 receptor (columns d, e, f, g) or with non specific siRNA as control (a, b, c). 48 hours later, cells were incubated for 10 minutes at 37° C. with 75 μg/ml ^125I-TG HDL2 without (control) or with apolipoprotein A-I 10 μg/ml (a and d), ADP 100 nM (b and e), AR-C69931MX 100 nM (c and f), PBS (g). Data are expressed as a percentage of internalized radioactivity with respect to the control value (set as 0) (n>5); (*) p<0.05 (unpaired t-test).
(§1) Internalization assays were performed as described in Guendouzi et al., (Biochemistry, 1998, 37: 14974-80) on HepG2 cells, obtained from the American Type Culture Collection ([…]). Cells were incubated for 10 minutes at 37° C. with 75 μg/ml of either ^125I-TG-HDL2, ^125I-HDL3 or ^125I-LDL. After washing and dissociation at 4° C. in phosphate buffered saline (PBS), cell radioactivity was determined using a Wallac 1261 multigamma apparatus.
(§2) The silencing of the different P2Y receptors were carried-out using the siRNA technique. The siRNA sequenced targeting human P2Y13 receptor (Gene Bank GB/EMBL/DDBJ accession number AF295368) was from position 406 or 359 relative to the start codon. The siRNA duplex (21-nt-RNAs) in deprotected and desalted form, the siRNA targeting human P2Y1 receptor (a mix of 4 siRNAs, M-005689), and the non-specific control siRNA (D-001206-01) were purchased from Dharmacon Inc. Subconfluent HepG2 cells were transiently transfected with siRNAs (final concentration, 100 nM) using Oligofectamine™ according to the manufacturer's protocole (Invitrogen). Cells were usually assayed 48 hours after transfection. Specific silencing effect was confirmed by at least three independent experiments.
Results are expressed as a percentage of internalization with respect to the control value (set at 0). Control corresponded to a basal value of internalization, amounting to 400 ng, 300 ng, 200 ng of TG-HDL2, HDL3 and LDL per mg of cells protein respectively for 10 minutes. […]

human P2Y13 receptor = target: T2, human P2Y13 receptor (Homo sapiens, UniProt Q9BPV8); test: TG-HDL2 internalization by HepG2 cells after P2Y13 receptor silencing by siRNA; assay type: cell-based; conditions: HepG2, P2Y13 siRNA 100 nM, 48 h; apoA-I 10 μg/ml, ADP 100 nM, AR-C69931MX 100 nM
T2 construct: host or cells: HepG2
T2 sequence (Q9BPV8 1-354): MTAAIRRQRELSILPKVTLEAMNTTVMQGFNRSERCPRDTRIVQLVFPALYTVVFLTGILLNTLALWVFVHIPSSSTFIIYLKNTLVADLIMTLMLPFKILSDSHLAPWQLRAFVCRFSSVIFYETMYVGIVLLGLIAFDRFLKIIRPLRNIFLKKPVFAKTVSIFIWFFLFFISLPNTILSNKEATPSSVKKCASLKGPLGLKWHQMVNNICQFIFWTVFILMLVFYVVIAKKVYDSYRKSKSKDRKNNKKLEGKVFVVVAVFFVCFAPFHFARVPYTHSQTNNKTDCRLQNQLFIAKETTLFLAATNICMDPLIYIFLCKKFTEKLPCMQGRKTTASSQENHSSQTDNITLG
Experimental: Experiment was performed as in FIG. 2A with non-specific control siRNA (a, b, c) or with siRNA directed to human P2Y13 receptor (d, e, f, g) (n>7); (*) p<0.05 (unpaired t-test).
as §1, §2
Results are expressed as a percentage of internalization with respect to the control value (set at 0). Control corresponded to a basal value of internalization, amounting to 400 ng, 300 ng, 200 ng of TG-HDL2, HDL3 and LDL per mg of cells protein respectively for 10 minutes. Data as a mean ±SEM of at least 7, 5, 6 independent experiments, for TG-HDL2, HDL3 and LDL respectively.

T1 sequence (P47900 whole entry): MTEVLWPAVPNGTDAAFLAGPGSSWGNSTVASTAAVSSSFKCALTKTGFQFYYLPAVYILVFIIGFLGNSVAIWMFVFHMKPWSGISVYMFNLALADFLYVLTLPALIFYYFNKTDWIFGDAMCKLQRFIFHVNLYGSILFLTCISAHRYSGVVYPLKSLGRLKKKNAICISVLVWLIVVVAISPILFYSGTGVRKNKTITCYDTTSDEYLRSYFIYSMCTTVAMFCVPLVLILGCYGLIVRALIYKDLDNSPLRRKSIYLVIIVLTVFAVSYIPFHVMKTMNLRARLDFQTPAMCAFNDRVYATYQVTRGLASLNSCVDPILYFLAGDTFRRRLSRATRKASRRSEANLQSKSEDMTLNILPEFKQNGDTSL

Row | Molecule | effect on the stimulation by ADP of the TG-HDL2 internalization (HepG2 cells) | internalization of 125I-TG-HDL2 by HepG2 cells, increase above control cells (HepG2 cells; 75 μg/ml 125I-TG-HDL2, apoA-I 10 μg/ml, ADP 100 nM, AR-C69931MX 100 nM alone) | effect of P2Y1 receptors silencing on the stimulation of TG-HDL2 endocytosis (human P2Y1 receptor) | effect of P2Y13 receptor silencing on TG-HDL2 endocytosis after stimulation (human P2Y13 receptor)
1 | Nc1ncnc2c1ncn2[C@@H]1O[C@H](COP(=O)(O)O)[C@@H](O)[C@H]1OP(=O)(O)O [A2P5P] | no effect | – | – | –
2 | CNc1ncnc2c1ncn2[C@H]1C[C@H](OP(=O)(O)O)[C@@H](COP(=O)(O)O)O1 [MRS2179] | no effect | – | – | –
3 | apoA-I: HDL apolipoprotein A-I; generates ADP through activation of the ectopic form of ATP synthase | – | 20% | no effect | dramatic inhibition
